Experiments:
[1] = system: double-stranded B-DNA; conditions: cited from earlier work
[2] = prior compounds; experimental animals (CC-1065); cited from earlier work
[3] = both in vitro and in experimental animals; cited from earlier work
[4] = system: U937 Cells; test: Cytotoxicity of Invented Compounds Against U937 Cells; type: cell-based; conditions: 3H-thymidine last 24 h
Method: Some of the new compounds were tested for their cytotoxicity against cancer cells. U937 cells were used to determine the IC50 values. The assay was set up in triplicate in 96 well flat bottom microtiter plates. All cells are seeded at 5×10^3 cells/well in RPMI-1640 plus 10% FCS. Drugs were added and the total volume was adjusted to 0.2 mL/well. Total incubation time was 48 h with the addition of ^3 H-thymidine for the last 24 h of incubation. The assay was harvested and counted with the packard Matrix 96 beta counter. The results were expressed as the percent growth inhibition calculated from the percent decrease in cpm of treated cells relative to the untreated controls.

[5] = system: B16 Melanoma; test: Cytotoxicity of Invented Compounds Against B16 Melanoma; type: cell-based; conditions: Mus musculus
[6] = system: human liver cancer HepG2 cells; test: Cytotoxicity of Mab-YW-242 conjugates against liver cancer HepG2 cells (3H-thymidine incorporation); type: cell-based; conditions: 1 h drug incubation, washed, overnight with 3H-thymidine, read-out: IC50 Values of the Mab-drug Conjugate
Method: Using such potent molecules for monoclonal antibody-drug conjugate has advantages over using low potency agents. The tumor specific antibody will carry these molecules specifically to tumor cells, thus enhancing the therapeutic efficacy of these compounds. The monoclonal antibody-drug conjugates are still very toxic to cancer cells. The Mab-YW-242 conjugates were tested in vitro against human liver cancer HepG2 cells. IC50 values for cell proliferation were determined by incorporation of ^3 H-thymidine.
The conjugates were tested in vitro against human liver cancer HepG2 cells. IC50 values for cell proliferation were determined by incorporation of ^3 H-thymidine. 4×10^4 of trypsinized cells in 0.1 mL of DMEM medium containing 10% of heat-inactivated FCS were added to each well of 96-well microtiter plates and incubated for 4 h at 37° C. to allow attachment of the cells. Drugs in 10 μL of PBS were added and incubated for 1 h at 37° C. Medium was removed and the cells were washed with PBS (0.2 mL). Fresh medium (0.1 mL) and ^3 H-thymidine (10 μL) were added. The cells were incubated overnight at 37° C. The cells were treated with trypsin-EDTA for 15 min at 37° C. and then harvested using a micromate 196 harvester. Radioactivity was counted and IC50 values were determined.

[7] = antitumor use; cited from earlier work
[8] = Homo sapiens, U-937, 48 h incubation

## COc1c(O)c2c(c3cc(C(=O)N4CCc5c4c(O)c(OC)c4[nH]c(C(=O)N6CC7CC78C6=CC(=O)c6[nH]cc(C)c68)cc54)[nH]c13)CCN2C(N)=O (stereo not shown) [CC-1065]
[1]; by its CPI left-hand unit
  alkylation site: alkylates the N3 position of the 3'-adenine
[1]; within the minor groove
  sequence preference of DNA binding: 5'-d(A/GNTTA)-3' and 5'-d(AAAAA)-3'
[2]
  delayed death: causes delayed death in experimental animals
[3]
  antitumor and antimicrobial activity: potent antitumor and antimicrobial activity both in vitro and in experimental animals

## COc1cccc2c1C(=O)c1c(O)c3c(c(O)c1C2=O)C[C@@](O)(C(=O)CO)C[C@@H]3O[C@H]1C[C@H](N)[C@H](O)[C@H](C)O1 [Doxorubicin, reference compound]
[4]; [8]
  IC50: 100 nM
[5]
  IC50: 780 nM
[6]
  IC50: 6000 nM

## COC(=O)c1c(C)[nH]c2c(OC(=O)N3CCN(C)CC3)cc3c(c12)[C@H](CBr)CN3C(=O)c1cc2cc(OC)c(OC)c(OC)c2[nH]1 [KW 2189]
[2]
  delayed death: do not cause delayed death

## Cc1c[nH]c2c1[C@@]13C[C@@H]1CN(C(=O)c1cc4cc(NC(=O)c5cc6ccccc6o5)ccc4[nH]1)C3=CC2=O [U-73975]
[2]
  delayed death: do not cause delayed death

## Cc1c[nH]c2c(O)cc3c(c12)[C@H](CCl)CN3C(=O)c1cc2cc(NC(=O)Nc3ccc4[nH]c(C(=O)N5C[C@@H](CCl)c6c5cc(O)c5[nH]cc(C)c65)cc4c3)ccc2[nH]1 [U-77779]
[2]
  delayed death: do not cause delayed death

## CCN(CC)c1ccc2cc(C(=O)Nc3ccc4[nH]c(C(=O)N5C[C@@H](CCl)c6c5cc(OC(=O)Nc5ccccc5)c5[nH]cc(C)c65)cc4c3)oc2c1 [U-80244]
[2]
  delayed death: do not cause delayed death

## CC(=O)Nc1cc(C(=O)N2CC(CCl)c3c2cc(O)c2ccccc32)n(C)c1 (stereo not shown) [YW-161, 3-[(4-Acetamino-1-methylpyrrole-2-yl)carbony:L]-1-(chloromethyl)-5-hydroxy-1,2-dihydro-3H-benz[e]indole]
[4]; 48 h incubation
  IC50: 5 nM

## CC(=O)Nc1ccc2[nH]c(C(=O)N3CC(CCl)c4c3cc(O)c3ccccc43)cc2c1 (stereo not shown) [YW-198, 3-[[5-(acetamino)-1H-indol-2'-yl]carbonyl]-1-(chloromethyl)-5-hydroxy-1,2-dihydro-3H-benz[e]indole]
[4]; [8]
  IC50: 0.2 nM

## CC(=O)Nc1ccc2[nH]c(C(=O)Nc3ccc4[nH]c(C(=O)N5CC(CCl)c6c5cc(O)c5ccccc65)cc4c3)cc2c1 (stereo not shown) [YW-200, 3-[[5-[[5-(Acetamino)-1H-indol-2-ylcarbonyl]amino]-1H-indol-2-yl]carbonyl]-1-(chloromethyl)-5-hydroxy-1,2-dihydro-3H-benz[e]indole]
[5]
  IC50: 7.2 nM

## CC(=O)Nc1ccc2oc(C(=O)Nc3ccc4[nH]c(C(=O)N5CC(CCl)c6c5cc(O)c5ccccc65)cc4c3)cc2c1 (stereo not shown) [YW-201, 3-[[5-[[5-(Acetamino)-1H-benzofuran-2-ylcarbonyl]amino]-1H-indol-2-yl]carbonyl]-1-(chloromethyl)-5-hydroxy-1,2-dihydro-3H-benz[e]indole]
[4]; [8]
  IC50: 0.07 nM

## CC(=O)Nc1ccc2[nH]c(C=CC(=O)N3CC(CCl)c4c3cc(O)c3ccccc43)cc2c1 (stereo not shown) [YW-202, 3-[[5-(acetamino)-1H-indol-2-yl]acrylyl]-1-(chloromethyl)-5-hydroxy-1,2-dihydro-3H-benz[e]indole]
[4]; [8]
  IC50: 0.2 nM

## CC(=O)Nc1ccc2oc(C(=O)Nc3ccc4[nH]c(C(=O)N5CC6CC67C5=CC(=O)c5ccccc57)cc4c3)cc2c1 (stereo not shown) [YW-213, N^2-[[5-[[[5-(Acetamino)-1H-benzofuran-2-yl]carbonyl]amino]-1H-indol-2-yl]carbonyl]1,2,9,9a-tetrahydrocyclopropa[c]-benz[e]indol-4-one]
[4]; [8]
  IC50: 0.2 nM

## O=C(C=Cc1cc2ccccc2o1)Nc1ccc2[nH]c(C(=O)N3CC(CCl)c4c3cc(O)c3ccccc43)cc2c1 (stereo not shown) [YW-215, 3-[[5-[(1H-Benzofuran-2-ylacrylyl)amino]-1H-indol-2-yl]carbony 1]-1-(chloromethyl)-5-hydroxy-1,2-dihydro-3H-benz[e]indole]
[4]; 48 h incubation
  IC50: 0.09 nM

## CCCC(=O)Nc1cc(C=CC(=O)N2CC(CCl)c3c2cc(O)c2ccccc32)n(C)c1 (stereo not shown) [YW-222, 3-(4-Butyramido-1-methyl-2-pyrroleacryloylcarbonyl)-1-(chloromethyl)-5-hydroxy-1,2-dihydro-3H-benz[e]indole]
[4]; [8]
  IC50: 0.5 nM

## O=C(CCCO)Nc1ccc2[nH]c(C(=O)N3CC(CCl)c4c3cc(O)c3ccccc43)cc2c1 (stereo not shown) [YW-231, 3-[[5-[(4-Hydroxy)butyramino]-1H-indol-2'-yl]carbonyl]-1-(chloromethyl)-5-hydroxy-1,2-dihydro-3H-benz[e]indole]
[4]; [8]
  IC50: 0.6 nM
[5]
  IC50: 4 nM

## O=C(CCCC[C@@H]1SC[C@@H]2NC(=O)N[C@@H]21)Nc1ccc2[nH]c(C(=O)N3CC(CCl)c4c3cc(O)c3ccccc43)cc2c1 (stereo partly shown) [YW-235, 3-[[5-(Biotin-amino)-1H-indol-2'-yl]carbonyl]-1-(chloromethyl)-5-hydroxy-1,2-dihydro-3H-benz[e]indole]
[4]; [8]
  IC50: 0.7 nM

## Nc1ccc2[nH]c(C(=O)N3CC(CCl)c4c3cc(O)c3ccccc43)cc2c1 (stereo not shown) [YW-242, 3-[(5-Amino-1H-indol-2'-yl)carbonyl]-1-(chloromethyl)-5-hydroxy-1,2-dihydro-3H-benz[e]indole]
[4]; [8]
  IC50: 0.09 nM
[5]
  IC50: 11 nM
[6]
  IC50: 200 nM

## COC(=O)[C@H]1O[C@@H](OCCCC(=O)Nc2ccc3[nH]c(C(=O)N4CC(CCl)c5c4cc(O)c4ccccc54)cc3c2)[C@H](OC(C)=O)[C@@H](OC(C)=O)[C@@H]1OC(C)=O (stereo partly drawn) [YW-247, 3-[[5-[4-(Methyl 2,3,4-tri-O-acetyl-1-deoxy-b-D-glucuronate)butyramino]-1H-indol-2'-yl]carbonyl]-1-(chloromethyl)-5-hydroxy-1,2-dihydro-3H-benz[e]indole]
[4]; [8]
  IC50: 1.4 nM

## COC(=O)[C@H]1O[C@@H](OCCCC(=O)Nc2ccc3[nH]c(C(=O)Nc4ccc5[nH]c(C(=O)N6CC(CCl)c7c6cc(O)c6ccccc76)cc5c4)cc3c2)[C@H](OC(C)=O)[C@@H](OC(C)=O)[C@@H]1OC(C)=O (stereo partly drawn) [YW-249, 3-[[5-[[5-[4-(Methyl 2,3,4-tri-O-acetyl-1-deoxy-b-D-glucuronate)butyramino]-1H-indol-2-ylcarbonyl]amino]-1H-indol-2-yl]carbony 1]-1-(chloromethyl)-5-hydroxy-1,2-dihydro-3H-benz[e]indole]
[4]; [8]
  IC50: 0.55 nM

## O=C(CCCO)Nc1ccc2[nH]c(C(=O)Nc3ccc4[nH]c(C(=O)N5CC(CCl)c6c5cc(O)c5ccccc65)cc4c3)cc2c1 (stereo not shown) [YW-254, 3-[[5-[[5-[4-(Hydroxy)butyramino]-1H-indol-2-ylcarbonyl]amino]-1H-indol-2-yl]carbonyl]-1-(chloromethyl)-5-hydroxy-1,2-dihydro-3H-benz[e]indole]
[4]; [8]
  IC50: 0.1 nM

## COC(=O)[C@H]1O[C@@H](OCCCC(=O)Nc2ccc3[nH]c(C(=O)Nc4ccc5[nH]c(C(=O)Nc6ccc7[nH]c(C(=O)N8CC(CCl)c9c8cc(O)c8ccccc98)cc7c6)cc5c4)cc3c2)[C@H](OC(C)=O)[C@@H](OC(C)=O)[C@@H]1OC(C)=O (stereo partly drawn) [YW-258, 3-[[5-[[5-[[5-[4-(Methyl 2,3,4-tri-O-acetyl-1-deoxy-b-D-glucuronate)butyramino]-1H-indo 1-2-ylcarbonyl]amino]-1H-indol-2-ylcarbonyl]amino]-1H-indol-2-yl]carbonyl]-1-(chloromethyl)-5-hydroxy-1,2-dihydro-3H-benz[e] indole]
[4]; [8]
  IC50: 0.08 nM

## O=C(CCCO)Nc1ccc2[nH]c(C(=O)Nc3ccc4[nH]c(C(=O)Nc5ccc6[nH]c(C(=O)N7CC(CCl)c8c7cc(O)c7ccccc87)cc6c5)cc4c3)cc2c1 (stereo not shown) [YW-259]
[4]; [8]
  IC50: 0.09 nM

## Cn1cc(N)cc1C(=O)N1CC(CCl)c2c1cc(O)c1ccccc21 (stereo not shown) [YW-284, 3-[(4-Amino-1-methylpyrrole-2-yl)carbonyl]-1-(chloromethyl)-5-hydroxy-1,2-dihydro-3H-benz[e]indole]
[4]; [8]
  IC50: 9 nM

## O=C(Cc1cccs1)N[C@@H]1C(=O)N2C(C(=O)O)=C(COC(=O)Nc3ccc4[nH]c(C(=O)N5CC(CCl)c6c5cc(O)c5ccccc65)cc4c3)C[S+]([O-])[C@H]12 (stereo partly shown) [YW-285]
[4]; [8]
  IC50: 0.9 nM

## Cn1cc(NC(=O)c2cc(NC(=O)c3cc(NC=O)cn3C)cn2C)cc1C(=O)NCCC(=N)N [distamycin]
[7]
  therapeutic efficacy: low therapeutic efficacy

## Cn1cc(NC(=O)c2cc(NC(=O)CN=C(N)N)cn2C)cc1C(=O)NCCC(=N)N [netropsin]
[7]
  therapeutic efficacy: low therapeutic efficacy

Reference: patent US5843937A (priority 1996, dated 1998)
